Assay results from patent US12350250B2, “Aggrelytes for treating ocular conditions” (The Regents of the University of Colorado, a Body Corporate, priority 2022, dated 2025).

Columns and labels:
mouse lenses = test: Stiffness of ex vivo mouse lenses (Example 18); set-up: species or system mouse (C57BL/6J); conditions: 1 mM, 24 hours, ex vivo mouse lenses (3-6 months old); not significant
Method: In this example, the lenses were dissected from the eyes of mice (C57BL/6J, 3-6 months old, Jackson Laboratories, Stock No. 000664) by a posterior approach and incubated without (“Control”) or with Aggrelyte-2 or Aggrelyte-2A (1 mM) for 24 hours in serum-free and phenol-red-free MEM (297 mOsm) at 37° C. Lens stiffness was measured as in Example 10, except that the load was applied at 50 mg increments.

[1] = molecular target: T1, human lens cortical proteins (Homo sapiens, UniProt Q71U36); test: Identification of AcK sites in proteins of Aggrelyte-2-treated lens (AcK peptide enrichment, LC-MS/MS); set-up: key to Fold Change (Aggrelyte-2 vs Control) [Total Sum]: *: were not detected in the control lens but were prominent in the Aggrelyte-2-treated lens; conditions: Tubulin alpha-1A chain K370
T1 construct: from tissue; host or cells: cortex of a human lens from a donor, treated ex vivo
T1 sequence (Q71U36 whole entry): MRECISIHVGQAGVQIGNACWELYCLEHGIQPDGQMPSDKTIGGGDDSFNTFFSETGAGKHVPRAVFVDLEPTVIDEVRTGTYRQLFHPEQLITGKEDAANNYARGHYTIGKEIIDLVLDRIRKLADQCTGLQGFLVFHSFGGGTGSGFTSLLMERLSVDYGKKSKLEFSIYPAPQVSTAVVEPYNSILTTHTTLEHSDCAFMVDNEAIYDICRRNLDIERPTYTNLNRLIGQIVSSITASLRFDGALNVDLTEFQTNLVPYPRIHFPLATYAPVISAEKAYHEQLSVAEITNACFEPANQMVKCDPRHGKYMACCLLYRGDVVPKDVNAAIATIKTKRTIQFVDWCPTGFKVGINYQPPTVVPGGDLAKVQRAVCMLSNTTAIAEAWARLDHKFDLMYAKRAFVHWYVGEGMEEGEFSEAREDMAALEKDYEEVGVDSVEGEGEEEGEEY
Method: (§1) The AcK modification sites and relative levels at those sites in the Aggrelyte-2-treated and untreated (control) human lens cortical proteins were evaluated in the lens (from a donor) that had the largest overall AcK differential measured by Western blot analysis (blot not shown; densitometric summary in FIG. 14B) and LC-MS/MS (FIG. 15B). Each sample (315 μg) was spiked with 200 ng of acetylated bovine serum albumin (AcBSA) protein standard, reduced, alkylated, and digested with trypsin using a urea-based method and then desalted using a C18 resin before being lyophilized. The samples were then immunoprecipitated according to the manufacturer's protocol for the PTMScan Acetyl-Lysine Motif Kit No. 13416 (Cell Signaling Technology). Peptides were purified with a Pierce C18 spin column (Thermo Fisher Scientific) and dried in a Speed Vac concentrator at 45° C. The peptides were resuspended in 3% acetonitrile in 0.1% formic acid for MS analysis.
(§2) The enriched AcK-bearing peptides were loaded onto a 2 cm PepMap 100 nanoviper trapping column and chromatographically resolved with a 0.075×250 mm, […] Acclaim PepMap RSLC reversed-phase nanocolumn (Thermo Scientific) using a 1290 Infinity II LC system equipped with a nanoadapter (Agilent). The mobile phase consisted of water+0.1% formic acid (A) and 90% aqueous acetonitrile+0.1% formic acid (B). Samples were loaded onto the trapping column at 3.0 μL/min for 3.5 min under initial conditions before being chromatographically separated at an effective flow rate of 330 nL/min using a gradient of 3-8% B over 3 min, 8-30% B over 33 min, and 30-40% B over 4 min at 40° C. The gradient was followed by a column wash at 75% B for 5 min. Data were collected using a 6550 Q-TOF equipped with a nanosource (Agilent Technologies) operated using intensity-dependent CID MS/MS to generate peptide identifications. MS/MS data were collected in positive ion polarity over a mass range of 290-1700 m/z at a scan rate of 8 spectra/second for MS scans and a mass range of 50-1700 m/z at a scan rate of 3 spectra/second for MS/MS scans. All charge states, except singly charged species, were allowed during MS/MS acquisition.
(§3) Tandem mass spectra were extracted, searched, and summarized using PEAKS X+ Studio 10.5 software (Bioinformatics Solutions Inc., Waterloo, Ontario). The spectra were searched against the UniProtKB SwissProt [2022_02] Homo sapiens database, allowing for up to three missed semitryptic cleavages with fixed carbamidomethylation of cysteine and a maximum of four variable modifications of deamidation of asparagine and glutamine, oxidation of methionine and/or acetylation of lysine per peptide. The allowed monoisotopic peptide mass tolerance was ±15.0 ppm, and the MS/MS tolerance was ±0.05 da. A false discovery rate (FDR) filter of 0.5% was used corresponding to a −10 log P score ≥19.3.
(§4) The MS-only level data from the LC-MS/MS analyses were extracted and aligned using Profinder V.B.10.01 software (Agilent Technologies). Retention times, neutral masses, and chemical formulas generated from identified acetyl peptides were used to perform batch-targeted feature extraction. Data were extracted with an ion count threshold of two or more ions, 5000 counts, and a score threshold of 70. The score was based on the quality of the mass accuracy, isotope abundances, and isotope spacing of compounds based on the chemical formula of the target peptides within a specified retention time window. Using the peptide isotope model, charge states 2-6 were allowed with H^+ and Na^+ charge carriers. The retention time window and mass window alignment tolerances were set to 0.4 min and 10 ppm, respectively. The extracted peptide peak areas were then used to determine a fold change value in the treated vs. control samples to help identify potential AcK sites that may be affected by aggrelyte-2. Due to a lack of statistical power, a three-fold change filter was used as a sufficient cutoff to identify potential AcK sites of interest. […]

[2] = molecular target: T2, human lens cortical proteins (Homo sapiens, UniProt P02489); test: as above; set-up: key to Fold Change (Aggrelyte-2 vs Control) [Total Sum]: *: were not detected in the control lens but were prominent in the Aggrelyte-2-treated lens; conditions: for Aggrelyte-2 treated Area: lens of donor
T2 construct: from tissue; host or cells: cortex of a human lens from a donor, treated ex vivo
T2 sequence (P02489 1-173): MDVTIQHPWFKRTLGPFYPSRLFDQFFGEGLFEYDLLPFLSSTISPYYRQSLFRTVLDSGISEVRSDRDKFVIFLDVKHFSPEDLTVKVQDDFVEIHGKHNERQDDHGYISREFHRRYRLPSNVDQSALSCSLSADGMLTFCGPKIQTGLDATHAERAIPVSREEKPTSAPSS
Method: as §1, §2, §3, §4

[3] = tested on: human lens cortical proteins; test: as above; set-up: key to Fold Change (Aggrelyte-2 vs Control) [Total Sum]: *: were not detected in the control lens but were prominent in the Aggrelyte-2-treated lens
Method: as §1, §2, §3, §4

[4] = molecular target: T3, human lens cortical proteins (Homo sapiens, UniProt P32320); test: as above; set-up: key to Fold Change (Aggrelyte-2 vs Control) [Total Sum]: *: were not detected in the control lens but were prominent in the Aggrelyte-2-treated lens; conditions: Cytidine deaminase K51
T3 construct: from tissue; host or cells: cortex of a human lens from a donor, treated ex vivo
T3 sequence (P32320 whole entry): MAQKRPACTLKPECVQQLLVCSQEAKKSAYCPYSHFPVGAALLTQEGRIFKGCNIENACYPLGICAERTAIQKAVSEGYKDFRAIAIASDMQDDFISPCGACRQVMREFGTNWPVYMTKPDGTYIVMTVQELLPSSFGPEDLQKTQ
Method: as §1, §2, §3, §4

## COC(=O)[C@H](CSC(C)=O)NC(C)=O [Aggrelyte-2, N,S-diacetyl-L-cysteine methyl ester]
Mouse lenses
  reduction of lens stiffness: approximately 20%
[1]
  Fold Change (Aggrelyte-2 vs Control) [Total Sum]: *
[1]; lens of donor
  Aggrelyte-2 treated Area: 4.24E+04
[2]; AlphaA-crystallin K70
  Fold Change (Aggrelyte-2 vs Control) [Total Sum]: 3.13
  Aggrelyte-2 treated Area: 8.80E+06
[2]; AlphaA-crystallin K88
  Fold Change (Aggrelyte-2 vs Control) [Total Sum]: *
  Aggrelyte-2 treated Area: 1.11E+05
[3]; Acetylated Bovine Serum Albumin Standard Spike at 200 ng in each sample (workup control), 17 peptides summed
  Aggrelyte-2 treated Area: 3.68E+07
[3]; Actin cytoplasmic 1 K61
  Fold Change (Aggrelyte-2 vs Control) [Total Sum]: 3.48
[3]; Actin cytoplasmic 1 K61, lens of donor
  Aggrelyte-2 treated Area: 7.63E+04
[3]; Actin cytoplasmic 1 K213
  Fold Change (Aggrelyte-2 vs Control) [Total Sum]: 3.53
[3]; Actin cytoplasmic 1 K213, lens of donor
  Aggrelyte-2 treated Area: 1.03E+05
[3]; AlphaB-crystallin K72
  Fold Change (Aggrelyte-2 vs Control) [Total Sum]: 3.56
[3]; AlphaB-crystallin K72, lens of donor
  Aggrelyte-2 treated Area: 6.31E+05
[3]; AlphaB-crystallin K174
  Fold Change (Aggrelyte-2 vs Control) [Total Sum]: 7.41
[3]; AlphaB-crystallin K174, lens of donor
  Aggrelyte-2 treated Area: 5.84E+06
[3]; BetaB2-crystallin K42
  Fold Change (Aggrelyte-2 vs Control) [Total Sum]: 25.80
[3]; BetaB2-crystallin K42, lens of donor
  Aggrelyte-2 treated Area: 6.98E+05
[3]; Filensin K360
  Fold Change (Aggrelyte-2 vs Control) [Total Sum]: 3.94
[3]; Filensin K360, lens of donor
  Aggrelyte-2 treated Area: 1.16E+05
[3]; Glyceraldehyde-3-phosphate dehydrogenase K263
  Fold Change (Aggrelyte-2 vs Control) [Total Sum]: 3.18
[3]; Glyceraldehyde-3-phosphate dehydrogenase K263, lens of donor
  Aggrelyte-2 treated Area: 1.04E+05
[3]; Peroxiredoxin-6 K56
  Fold Change (Aggrelyte-2 vs Control) [Total Sum]: 3.26
[3]; Peroxiredoxin-6 K56, lens of donor
  Aggrelyte-2 treated Area: 5.83E+05
[3]; Phakinin K400
  Fold Change (Aggrelyte-2 vs Control) [Total Sum]: 14.48
[3]; Phakinin K400, lens of donor
  Aggrelyte-2 treated Area: 2.21E+05
[3]; Retinal dehydrogenase 1 K495
  Fold Change (Aggrelyte-2 vs Control) [Total Sum]: 9.12
[3]; Retinal dehydrogenase 1 K495, lens of donor
  Aggrelyte-2 treated Area: 9.11E+04
[4]
  Fold Change (Aggrelyte-2 vs Control) [Total Sum]: 3.66
[4]; lens of donor
  Aggrelyte-2 treated Area: 7.26E+05
